These are literature values, as cited in PubChem BioAssay AID1259410 (Chemical Carcinogenesis Research Information System (CCRIS), 2018).

SMILES strings stand for the structures.

The subject of this data set is rodent tumor promotion studies, tumor incidence. Briefly: CCRIS tumor promotion studies. The note with it: Route [Promoter]: ORAL.

Take `CCC1(c2ccccc2)C(=O)NC(=O)NC1=O`: the outcome (Carcinogen: DIMETHYLNITROSAMINE, 62-75-9, Doses [Carcinogen]: 5 UG/G ONCE, Doses [Promoter]: 0, 500 PPM IN THE DRINKING WATER FOR 24 WK BEGINNING POST CARCINOGEN DOSE (STUDY DURATION: 26 WK), Route [Carcinogen]: INTRAPERITONEAL, Species: MOUSE, Strain/Sex: B6C3F1/MALE) is recorded as “liver: adenoma”; the outcome (Carcinogen: METHYL(ACETOXYMETHYL)NITROSAMINE, 56856-83-8, Doses [Carcinogen]: 0.05 MMOL/KG IN 5 ML STERILE PHOSPHATE BUFFER ONCE, Doses [Promoter]: 0, 500 PPM IN DRINKING WATER BEGINNING 2 WK POST CARCINOGEN DOSE AND CONTINUING FOR 78 WK (STUDY DURATION: 80 WK), Route [Carcinogen]: INTRAPERITONEAL, Species: RAT, Strain/Sex: F344/MALE) was “thyroid: follicular cell adenoma or follicular cell carcinoma or c-cell tumor; l”; the outcome (Carcinogen: METHYLNITROSOUREA, Doses [Carcinogen]: 20 MG/KG 2/WK FOR 4 WK, Doses [Promoter]: 0.05% IN DIET FOR 32 WK, Route [Carcinogen]: INTRAPERITONEAL, Species: RAT, Strain/Sex: F344/MALE) is listed as “thyroid gland: adenocarcinoma”; the outcome (Carcinogen: N,N-DIETHYLNITROSAMINE, 55-18-5, Doses [Carcinogen]: 75 MG/KG IN SALINE ONCE AT 5 WK OF AGE, Doses [Promoter]: 0, 500 PPM IN DIET FOR 45 WK BEGINNING 2 WK POST CARCINOGEN TREATMENT (STUDY DURATION: 47 WK), Route [Carcinogen]: INTRAPERITONEAL, Species: RAT, Strain/Sex: F344/MALE) is “liver: hepatocellular adenoma”; the outcome (Carcinogen: N,N-DIETHYLNITROSAMINE, 55-18-5, Doses [Carcinogen]: 75 MG/KG IN SALINE ONCE AT 5 WK OF AGE, Doses [Promoter]: 0, 500 PPM IN DIET FOR 46-72 WK BEGINNING 2 WK POST CARCINOGEN TREATMENT (STUDY DURATION: 46-72 WK), Route [Carcinogen]: INTRAPERITONEAL, Species: RAT, Strain/Sex: F344/MALE) was “liver: hepatocellular adenoma”; the outcome (Carcinogen: N-BIS(2-HYDROXYPROPYL)NITROSAMINE, Doses [Carcinogen]: 70 MG/100 G BW 1/WK FOR 4 OR 6 WK, Doses [Promoter]: 500 PPM IN DIET FROM WK 5-16 OR 7-18, Route [Carcinogen]: SUBCUTANEOUS, Species: RAT, Strain/Sex: WISTAR/MALE) is “thyroid gland: follicular, papillary, and solid adenoma, carcinoma”. Besides, the outcome was “prostate/seminal vesicle: adenocarcinoma” (Carcinogen: N-METHYL-N-NITROSOUREA, 684-93-5, Doses [Carcinogen]: 30 MG/KG BW ONCE AT 3 MO OF AGE, Doses [Promoter]: 0, 50 MG/100 G IN DIET FOR 7 MO BEGINNING 7 MO POST CARCINOGEN DOSE (STUDY DURATION: 14 MO), Route [Carcinogen]: INTRAVENOUS, Species: RAT, Strain/Sex: LOBUND-WISTAR/MALE); “lung: carcinoma, prostate/seminal vesicles: tumor” (Carcinogen: N-METHYL-N-NITROSOUREA, 684-93-5, Doses [Carcinogen]: 30 MG/KG BW ONCE, Doses [Promoter]: 0, 0.5% IN DIET FOR DURATION OF STUDY BEGINNING POST CARCINOGEN DOSE(STUDY DURATION: 14 MO), Route [Carcinogen]: INTRAVENOUS, Species: RAT, Strain/Sex: LOBUND-WISTAR/MALE); “liver: hepatocellular adenoma” (Carcinogen: N-NITROSODIETHYLAMINE, 55-18-5, Doses [Carcinogen]: 5 UG/G BW ONCE AT 15 D OF AGE, Doses [Promoter]: 0, 500 PPM IN DRINKING WATER BEGINNING AT 4 WK OF AGE AND CONTINUING FOR DURATION OF STUDY (STUDY DURATION: 28 WK), Route [Carcinogen]: INTRAPERITONEAL, Species: MOUSE, Strain/Sex: C3H/HENCR/FEMALE); “liver: hepatocellular adenoma” (Carcinogen: N-NITROSODIETHYLAMINE, 55-18-5, Doses [Carcinogen]: 5 UG/G BW ONCE AT 15 D OF AGE, Doses [Promoter]: 0, 500 PPM IN DRINKING WATER BEGINNING AT 4 WK OF AGE AND CONTINUING FOR DURATION OF STUDY (STUDY DURATION: 28 WK), Route [Carcinogen]: INTRAPERITONEAL, Species: MOUSE, Strain/Sex: C3H/HENCR/MALE); “liver: hepatocellular adenoma or carcinoma; thyroid gland: follicular cell adeno” (Carcinogen: N-NITROSODIETHYLAMINE, 55-18-5, Doses [Carcinogen]: 75 MG IN STERILE SALINE ONCE, Doses [Promoter]: 0, 500 PPM IN DIET BEGINNING 2 WK POST CARCINOGEN DOSE AND CONTINUING FOR DURATION OF STUDY (STUDY DURATION: 78 WK), Route [Carcinogen]: INTRAPERITONEAL, Species: RAT, Strain/Sex: F344/MALE); “liver: hepatocellular adenoma” (Carcinogen: N-NITROSODIETHYLAMINE, 55-18-5, Doses [Carcinogen]: 75 MG ONCE, Doses [Promoter]: 0, 500 PPM IN DRINKING WATER BEGINNING 2 WK POST CARCINOGEN DOSE AND CONTINUING FOR DURATION OF STUDY (STUDY DURATION: 5, Route [Carcinogen]: INTRAPERITONEAL, Species: RAT, Strain/Sex: F344/MALE). For the same compound, the outcome was “liver: hepatocellular carcinoma; thyroid gland: follicular cell adenoma or adeno” (Carcinogen: N-NITROSODIETHYLAMINE, 55-18-5, Doses [Carcinogen]: 75 MG ONCE, Doses [Promoter]: 0, 500 PPM IN DRINKING WATER BEGINNING 2 WK POST CARCINOGEN DOSE AND CONTINUING FOR DURATION OF STUDY (STUDY DURATION: 7, Route [Carcinogen]: INTRAPERITONEAL, Species: RAT, Strain/Sex: F344/MALE); “liver: hepatocellular adenoma, hepatocellular carcinoma, hepatoblastoma” (Carcinogen: N-NITROSODIETHYLAMINE, 55-18-5, Doses [Carcinogen]: 90 MG/KG BW ONCE, Doses [Promoter]: 0, 500 PPM IN DIET FOR 53 WK BEGINNING 2 WK POST CARCINOGEN DOSE (STUDY DURATION: 55 WK), Route [Carcinogen]: INTRAPERITONEAL, Species: MOUSE, Strain/Sex: D2B6F1/MALE); “liver: hepatocellular adenoma or carcinoma” (Carcinogen: N-NITROSODIETHYLAMINE, 7119-92-8, Doses [Carcinogen]: 80 MG/KG ONCE, Doses [Promoter]: 0, 500 PPM IN DIET BEGINNING 1 WK POST CARCINOGEN DOSE AND CONTINUING FOR 168 D (STUDY DURATION: 259 D), Route [Carcinogen]: INTRAPERITONEAL, Species: MOUSE, Strain/Sex: B6C3F1/MALE); “liver: tumor” (Carcinogen: TAMOXIFEN, 10540-29-1, Doses [Carcinogen]: 420 PPM IN DIET FOR 3 MO, Doses [Promoter]: 0, 0.1% (W/V) IN DRINKING WATER FOR LIFE BEGINNING POST CARCINOGEN TREATMENT (STUDY DURATION: LIFETIME), Route [Carcinogen]: ORAL, Species: RAT, Strain/Sex: WISTAR/FEMALE).
